Assay results published in patent US20100267561A1, “HERBICIDAL PYRIDAZINONE DERIVATIVES” (priority 2007, published 2010).

Assays:
Assay in all cases: Test B pre-/postemergence plant response
Format in all cases: in vivo
[1] = system: Italian ryegrass (Lolium multiflorum)
Text: (§1) Seeds of plant species selected from blackgrass (Alopecurus myosuroides), downy bromegrass (Bromus tectorum), green foxtail (Setaria viridis), Italian ryegrass (Lolium multiflorum), wheat (Triticum aestivum), wild oat (Avena fatua), catchweed bedstraw (Galium aparine), bermudagrass (Cynodon dactylon), surinam grass (Brachiaria decumbens), cocklebur (Xanthium strumarium), corn (Zea mays), large crabgrass (Digitaria sanguinalis), woolly cupgrass (Eriochloa villosa), giant foxtail (Setaria faberii), goosegrass (Eleusine indica), johnsongrass (Sorghum halepense), kochia (Kochia scoparia), lambsquarters (Chenopodium album), morningglory (Ipomoea coccinea), eastern black (E.B.) nightshade (Solanum ptycanthum), yellow nutsedge (Cyperus esculentus), pigweed (Amaranthus retroflexus), common ragweed (Ambrosia elation), Russian thistle (Salsola iberica), soybean (Glycine max), common (oilseed) sunflower (Helianthus annuus), and velvetleaf (Abutilon theophrasti) were planted and treated preemergence with test chemicals formulated in a non-phytotoxic solvent mixture which included a surfactant.
(§2) At the same time, plants selected from these crop and weed species and also winter barley (Hordeum vulgare), canarygrass (Phalaris minor), chickweed (Stellaria media) and windgrass (Apera spica-venti) were treated with postemergence applications of some of the test chemicals formulated in the same manner. Plants ranged in height from 2 to 18 cm (1- to 4-leaf stage) for postemergence treatments.
(§3) Plant species in the flooded paddy test consisted of rice (Oryza sativa), umbrella sedge (Cyperus difformis), ducksalad (Heteranthera limosa) and barnyardgrass (Echinochloa crus-galli) grown to the 2-leaf stage for testing. At time of treatment, test pots were flooded to 3 cm above the soil surface, treated by application of test compounds directly to the paddy water, and then maintained at that water depth for the duration of the test. Treated plants and controls were maintained in a greenhouse for 13 to 15 days, after which time all species were compared to controls and visually evaluated. Plant response ratings, summarized in Table B, are based on a scale of 0 to 100 where 0 is no effect and 100 is complete control. A dash (-) response means no test result.

[2] = system: bermudagrass (Cynodon dactylon)
Text: as §1, §2, §3

[3] = system: blackgrass (Alopecurus myosuroides)
Text: as §1, §2, §3

[4] = system: common ragweed (Ambrosia elation)
Text: as §1, §2, §3

corn (Zea mays) = system: corn (Zea mays)
Text: as §1, §2, §3

[5] = system: eastern black (E.B.) nightshade (Solanum ptycanthum); settings: Preemergence, scale 0 to 100
Text: as §1, §2, §3

[6] = system: giant foxtail (Setaria faberii)
Text: as §1, §2, §3

[7] = system: johnsongrass (Sorghum halepense)
Text: as §1, §2, §3

kochia (Kochia scoparia) = system: kochia (Kochia scoparia)
Text: as §1, §2, §3

[8] = system: lambsquarters (Chenopodium album)
Text: as §1, §2, §3

[9] = system: morningglory (Ipomoea coccinea)
Text: as §1, §2, §3

[10] = system: surinam grass (Brachiaria decumbens)
Text: as §1, §2, §3

wild oat (Avena fatua) = system: wild oat (Avena fatua)
Text: as §1, §2, §3

[11] = system: yellow nutsedge (Cyperus esculentus)
Text: as §1, §2, §3

[12] = Postemergence, 31 g ai/ha, scale 0 to 100, 0 no effect, 100 complete control
[13] = Postemergence, 62 g ai/ha, scale 0 to 100
[14] = Postemergence, 125 g ai/ha, scale 0 to 100
[15] = Postemergence, 250 g ai/ha, scale 0 to 100
[16] = Preemergence, 31 g ai/ha, 0 to 100 scale, 0 no effect, 100 complete control
[17] = Preemergence, 62 g ai/ha, scale 0 to 100
[18] = Preemergence, 125 g ai/ha, scale 0 to 100
[19] = Preemergence, 250 g ai/ha, scale 0 to 100
[20] = 250 g ai/ha, preemergence, 0-100 scale

Cc1cc(-c2ccc(Br)cc2)nn1-c1c(OC(=O)C2CC2)cnn(C)c1=O [Compound 5]
Plant response rating, Ryegrass, Italian [1, 12]: 100 | Plant response rating, Ryegrass, Italian [1, 13]: 100 | Plant response rating, Ryegrass, Italian [1, 14]: 100 | Plant response rating, Ryegrass, Italian [1, 15]: 100 | Plant response rating, Ryegrass, Italian [1, 16]: 100 | Plant response rating, Ryegrass, Italian [1, 17]: 100 | Plant response rating, Ryegrass, Italian [1, 18]: 100 | Plant response rating, Ryegrass, Italian [1, 19]: 100 | Bermudagrass plant response rating [2, 20]: 100 | Plant response rating, Bermudagrass [2, 12]: 100 | Plant response rating, Bermudagrass [2, 13]: 100 | Plant response rating, Bermudagrass [2, 14]: 100 | Plant response rating, Bermudagrass [2, 15]: 100 | Plant response rating, Bermudagrass [2, 16]: 98 | Plant response rating, Bermudagrass [2, 17]: 100 | Plant response rating, Bermudagrass [2, 18]: 100 | Blackgrass plant response rating [3, 20]: 100 | Plant response rating, Blackgrass [3, 12]: 95 | Plant response rating, Blackgrass [3, 13]: 100 | Plant response rating, Blackgrass [3, 14]: 100 | Plant response rating, Blackgrass [3, 15]: 100 | Plant response rating, Blackgrass [3, 16]: 100 | Plant response rating, Blackgrass [3, 17]: 100 | Plant response rating, Blackgrass [3, 18]: 100 | Plant response rating, Ragweed [4, 12]: 0 | Plant response rating, Ragweed [4, 13]: 0 | Plant response rating, Ragweed [4, 14]: 60 | Plant response rating, Ragweed [4, 15]: 65 | Plant response rating, Ragweed [4, 16]: 0 | Plant response rating, Ragweed [4, 17]: 0 | Plant response rating, Ragweed [4, 18]: 0 | Plant response rating, Ragweed [4, 19]: 10 | Plant response rating, Corn (corn (Zea mays); [12]): 90 | Plant response rating, Corn (corn (Zea mays); [13]): 100 | Plant response rating, Corn (corn (Zea mays); [14]): 100 | Plant response rating, Corn (corn (Zea mays); [15]): 100 | Plant response rating, Corn (corn (Zea mays); [16]): 95 | Plant response rating, Corn (corn (Zea mays); [17]): 95 | Plant response rating, Corn (corn (Zea mays); [18]): 98 | Plant response rating, Corn (corn (Zea mays); [19]): 100 | Plant response rating, Nightshade, E. B. ([5]; 62 g ai/ha): 0 | Plant response rating, Nightshade, E. B. ([5]; 250 g ai/ha): 100 | Plant response rating, Foxtail, Giant [6, 12]: 100 | Plant response rating, Foxtail, Giant [6, 13]: 100 | Plant response rating, Foxtail, Giant [6, 14]: 100 | Plant response rating, Foxtail, Giant [6, 15]: 100 | Plant response rating, Foxtail, Giant [6, 16]: 98 | Plant response rating, Foxtail, Giant [6, 17]: 100 | Plant response rating, Foxtail, Giant [6, 18]: 100 | Plant response rating, Foxtail, Giant [6, 19]: 100 | Plant response rating, Johnsongrass [7, 12]: 0 | Plant response rating, Johnsongrass [7, 13]: 0 | Plant response rating, Johnsongrass [7, 14]: 85 | Plant response rating, Johnsongrass [7, 15]: 90 | Plant response rating, Johnsongrass [7, 16]: 0 | Plant response rating, Johnsongrass [7, 17]: 100 | Plant response rating, Johnsongrass [7, 18]: 100 | Plant response rating, Johnsongrass [7, 19]: 100 | Plant response rating, Kochia (kochia (Kochia scoparia); [12]): 0 | Plant response rating, Kochia (kochia (Kochia scoparia); [13]): 0 | Plant response rating, Kochia (kochia (Kochia scoparia); [14]): 0 | Plant response rating, Kochia (kochia (Kochia scoparia); [15]): 70 | Plant response rating, Kochia (kochia (Kochia scoparia); [17]): 50 | Plant response rating, Kochia (kochia (Kochia scoparia); [18]): 50 | Plant response rating, Kochia (kochia (Kochia scoparia); [19]): 60 | Plant response rating, Lambsquarters [8, 12]: 0 | Plant response rating, Lambsquarters [8, 13]: 20 | Plant response rating, Lambsquarters [8, 14]: 80 | Plant response rating, Lambsquarters [8, 15]: 80 | Plant response rating, Lambsquarters [8, 18]: 90 | Plant response rating, Lambsquarters [8, 19]: 100 | Plant response rating, Morningglory [9, 12]: 0 | Plant response rating, Morningglory [9, 13]: 0 | Plant response rating, Morningglory [9, 14]: 0 | Plant response rating, Morningglory [9, 15]: 0 | Plant response rating, Morningglory [9, 16]: 0 | Plant response rating, Morningglory [9, 17]: 0 | Plant response rating, Morningglory [9, 18]: 0 | Plant response rating, Morningglory [9, 19]: 0 | Plant response rating, Surinam Grass [10, 12]: 100 | Plant response rating, Surinam Grass [10, 13]: 100 | Plant response rating, Surinam Grass [10, 14]: 100 | Plant response rating, Surinam Grass [10, 15]: 100 | Plant response rating, Surinam Grass [10, 16]: 100 | Plant response rating, Surinam Grass [10, 17]: 100 | Plant response rating, Surinam Grass [10, 18]: 100 | Plant response rating, Surinam Grass [10, 19]: 100 | Plant response rating, Oat, Wild (wild oat (Avena fatua); [12]): 95 | Plant response rating, Oat, Wild (wild oat (Avena fatua); [13]): 100 | Plant response rating, Oat, Wild (wild oat (Avena fatua); [14]): 100 | Plant response rating, Oat, Wild (wild oat (Avena fatua); [15]): 100 | Plant response rating, Oat, Wild (wild oat (Avena fatua); [16]): 30 | Plant response rating, Oat, Wild (wild oat (Avena fatua); [17]): 70 | Plant response rating, Oat, Wild (wild oat (Avena fatua); [18]): 80 | Plant response rating, Oat, Wild (wild oat (Avena fatua); [19]): 95 | Plant response rating, Nutsedge, Yellow [11, 12]: 0 | Plant response rating, Nutsedge, Yellow [11, 13]: 0 | Plant response rating, Nutsedge, Yellow [11, 14]: 60 | Plant response rating, Nutsedge, Yellow [11, 17]: 0 | Plant response rating, Nutsedge, Yellow [11, 18]: 0
